This test deals with T1, human cloned CHRM2 receptor (Homo sapiens, UniProt P08172).
T1 construct: expressed in transfected cells; host or cells: CHO-K1 (M2_CHO)
T1 sequence (P08172 1-466): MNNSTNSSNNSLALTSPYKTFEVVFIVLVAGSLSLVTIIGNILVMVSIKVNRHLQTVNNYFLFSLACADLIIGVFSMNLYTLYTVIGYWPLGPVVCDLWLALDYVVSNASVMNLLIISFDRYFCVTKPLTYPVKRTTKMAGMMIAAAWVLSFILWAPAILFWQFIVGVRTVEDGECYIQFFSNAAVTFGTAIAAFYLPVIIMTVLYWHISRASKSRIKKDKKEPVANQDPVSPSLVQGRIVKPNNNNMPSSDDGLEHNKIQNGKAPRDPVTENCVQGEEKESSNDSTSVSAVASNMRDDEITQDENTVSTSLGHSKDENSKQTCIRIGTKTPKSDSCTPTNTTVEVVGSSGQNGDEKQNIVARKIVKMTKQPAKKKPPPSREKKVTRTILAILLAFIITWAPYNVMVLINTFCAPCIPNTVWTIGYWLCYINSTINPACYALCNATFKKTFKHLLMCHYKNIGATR
Put plainly: CHRM2 Ca++ Flux Assay (M2_CHO cells, agonist mode). In kind it is cell-based. The settings on record: M2 CHO cells; for EC50: agonist mode, geometric mean if tested more than once, read-out: M2 FDSS EC50; for Emax / M2 FDSS PA %: Percent Activity (PA) measured to EC100 of Carbachol; for Emax: read-out: M2 FDSS PA %. How it is done:
The above examples were characterized by measuring the intracellular mobilization of Ca^++ ions caused by signaling events mediated by the receptor. The Intra-cellular Calcium flux levels were captured by the highly sensitive Ca^++ indicator, Calcium Assay Kit (BD Biosciences; Catalog Number 640178. The fluorescent activity from all receptors were monitored by the fluorescent imager, FDSS 7000EX (Hamamatsu) over a span of 3 minutes. The change in Calcium flux was readily captured upon activation with the muscarinic orthosteric agonist, Carbachol.
CHO-K1 cells stably expressing the human cloned CHRM2 receptor (M2_CHO cells) were grown and maintained in a monolayer culture with F12/HAM (Life Technologies) supplemented with 10% Fetal Bovine Serum, 1×Pen-Strep, and 0.4 mg/mL Geneticin in a humidified atmosphere (5% CO2) at 37° C. The cultures were grown to 80-90% confluency in T150 flasks (Corning) and washed with 1×DPBS and lifted with 0.05% Trypsin (Life Technologies). The cells were then spun (1K rpm, 3 minutes) and frozen using Recovery Cell Culture Freezing Media (Gibco Technologies). Cells were stored in liquid nitrogen and thawed a day before the assay.
Prior to the day of the assay, stable M2 CHO cells were thawed and plated on Greiner 384 well TC treated plate at a density of 12K cells/well and kept overnight in a humidified atmosphere (5% CO2) at 37° C. The following day, the cells were loaded with Ca^++ dye (BD Biosciences) using Loading Buffer (HBSS +Ca/+Mg, 20 mM HEPES, 2.5 mM Probenecid) and placed back in cell incubator for a minimum of 1 hour and maximum of 2 hours. After incubation, the dye was replaced with Assay Buffer (HBSS −Ca/−Mg, 20 mM HEPES, 2.5 mM Probenecid) supplemented with 20 μM ATP (Sigma Aldrich) and kept at room temperature for 60 minutes prior before running on cell imager. The FDSS 7000EX (Hamamatsu) was used to acquire Ca^++ traces from cells in response to compound treatment and the data was used to generate dose response curves in agonist mode. All compounds were serially diluted in DMSO then prepared in Assay Buffer for Ca^−+ flux studies. The dose response curves were generated from the average of triplicate wells obtained from each data point and used a non-linear regression of four parameter dose response algorithm. The Percent Activity (PA) was measured to EC100 of Carbachol.
If an Example was tested more than once in an assay, then the values below represent the geometric mean of the results from each independent experiment.

This note sets out measurements from patent US11485742B2, “2-azaspiro[3.4]octane derivatives as M4 agonists” (NOVARTIS AG, priority 2019, dated 2022).

As usually defined, the EC50 is the concentration at which the effect is half-maximal. On to `Fc1ccc(OC[C@@H]2CCOC2)c(C2CCN([C@@H]3COC4(C3)CN(c3nnco3)C4)CC2)c1` [Example 1B, (S)-7-(4-(5-fluoro-2-(((R)-tetrahydrofuran-3-yl)methoxy)phenyl)piperidin-1-yl)-2-(1,3,4-oxadiazol-2-yl)-5-oxa-2-azaspiro[3.4]octane], for which the EC50 came to 0.492 µM and the Emax amounted to 39%.
As to `c1ccc(C2CCN([C@@H]3COC4(C3)CN(c3ncco3)C4)CC2)c(O[C@H]2CCOC2)c1` [Example 4H, (S)-2-(oxazol-2-yl)-7-(4-(2-(((S)-tetrahydrofuran-3-yl)oxy)phenyl)piperidin-1-yl)-5-oxa-2-azaspiro[3.4]octane], the EC50 is greater than 25 µM and the Emax is 20%.
For the molecule `Fc1ccc(OC[C@H]2CCO2)c(C2CCN([C@@H]3COC4(C3)CN(c3nncs3)C4)CC2)c1.O=C(O)C(F)(F)F` (single isomer, unassigned) [Example 2D, (S)-7-(4-(5-fluoro-2-(((R)-oxetan-2-yl)methoxy)phenyl)piperidin-1-yl)-2-(1,3,4-thiadiazol-2-yl)-5-oxa-2-azaspiro[3.4]octane trifluoroacetate or (S)-7-(4-(5-fluoro-2-(((S)-oxetan-2-yl)methoxy)phenyl)piperidin-1-yl)-2-(1,3,4-thiadiazol-2-yl)-5-oxa-2-azaspiro[3.4]octane trifluoroacetate], the concentration giving a half-maximal response (EC50) is 0.446 µM and the “M2 FDSS PA %” value worked out at 50%.
As to `c1ccc(C2CCN([C@@H]3COC4(C3)CN(c3ncco3)C4)CC2)c(-c2cncnc2)c1` [Example 4R, (S)-2-(oxazol-2-yl)-7-(4-(2-(pyrimidin-5-yl)phenyl)piperidin-1-yl)-5-oxa-2-azaspiro[3.4]octane], the EC50 amounted to 0.203 µM and the Emax came to 12%.
In the same order, the values of `Fc1ccc(C2CCN([C@@H]3COC4(C3)CN(c3ncco3)C4)CC2)c(OC2COC2)c1` [Example 4S, (S)-7-(4-(4-fluoro-2-(oxetan-3-yloxy)phenyl)piperidin-1-yl)-2-(oxazol-2-yl)-5-oxa-2-azaspiro[3.4]octane] are greater than 25 µM and 31%.
For `Fc1ccc(OC[C@H]2COCCO2)c(C2CCN([C@@H]3COC4(C3)CN(c3nnco3)C4)CC2)c1` [Example 1C] the same measures were 0.503 µM and 29%.
In the same order, the values of `CC(C)(O)CCOc1ccc(F)cc1C1CCN([C@@H]2COC3(C2)CN(c2nncs2)C3)CC1` [Example 5P, (S)-4-(2-(1-(2-(1,3,4-thiadiazol-2-yl)-5-oxa-2-azaspiro[3.4]octan-7-yl)piperidin-4-yl)-4-fluorophenoxy)-2-methylbutan-2-ol] are 9.7 µM and 25%.
In the case of `Fc1ccc(OC[C@H]2COCCO2)c(C2CCN([C@@H]3COC4(C3)CN(c3ncco3)C4)CC2)c1` [Example 4B, (S)-7-(4-(2-(((R)-1,4-dioxan-2-yl)methoxy)-5-fluorophenyl)piperidin-1-yl)-2-(oxazol-2-yl)-5-oxa-2-azaspiro[3.4]octane], the EC50 is greater than 25 µM and the Emax is 32%.
In the same order, the values of `Fc1ccc(C2CCOCC2)c(C2CCN([C@@H]3COC4(C3)CN(c3ncco3)C4)CC2)c1` [Example 4W, (S)-7-(4-(5-fluoro-2-(tetrahydro-2H-pyran-4-yl)phenyl)piperidin-1-yl)-2-(oxazol-2-yl)-5-oxa-2-azaspiro[3.4]octane] are 5.16 µM and 21%.
For `COCCOc1ccc(F)cc1C1CCN([C@@H]2COC3(C2)CN(c2ncns2)C3)CC1` [Example 5D, (S)-7-(4-(5-fluoro-2-(2-methoxyethoxy)phenyl)piperidin-1-yl)-2-(1,2,4-thiadiazol-5-yl)-5-oxa-2-azaspiro[3.4]octane] the same measures were greater than 25 µM and 0%.
For `COc1ccccc1C1CCN([C@@H]2COC3(C2)CN(c2ncco2)C3)CC1` [Example 4N, (S)-7-(4-(2-methoxyphenyl)piperidin-1-yl)-2-(oxazol-2-yl)-5-oxa-2-azaspiro[3.4]octane] the same measures were greater than 25 µM and 0%.
As for `c1ccc(C2CCN([C@@H]3COC4(C3)CN(c3nnco3)C4)CC2)c(C2CCOCC2)c1` [Example 3C, (S)-2-(1,3,4-oxadiazol-2-yl)-7-(4-(2-(tetrahydro-2H-pyran-4-yl)phenyl)piperidin-1-yl)-5-oxa-2-azaspiro[3.4]octane], the EC50 worked out at 4.82 µM and the Emax was 34%.
Turning to `CC1(C)C[C@@H](Oc2ccc(F)cc2C2CCN([C@@H]3COC4(C3)CN(c3nnco3)C4)CC2)CO1` (single isomer, unassigned) [Example 2O, (S)-7-(4-(2-(((R)-5,5-dimethyltetrahydrofuran-3-yl)oxy)-5-fluorophenyl)piperidin-1-yl)-2-(1,3,4-oxadiazol-2-yl)-5-oxa-2-azaspiro[3.4]octane or (S)-7-(4-(2-(((S)-5,5-dimethyltetrahydrofuran-3-yl)oxy)-5-fluorophenyl)piperidin-1-yl)-2-(1,3,4-oxadiazol-2-yl)-5-oxa-2-azaspiro[3.4]octane], the EC50 was found to be 0.581 µM and the “M2 FDSS PA %” value amounted to 37%.
Regarding `Fc1cc(F)c(OC2COC2)c(C2CCN([C@@H]3COC4(C3)CN(c3nnco3)C4)CC2)c1` [Example 2EE, (S)-7-(4-(3,5-difluoro-2-(oxetan-3-yloxy)phenyl)piperidin-1-yl)-2-(1,3,4-oxadiazol-2-yl)-5-oxa-2-azaspiro[3.4]octane], the EC50 was 2.94 µM and the Emax was 50%.
For `Fc1ccc(O[C@@H]2CCOC2)c(C2CCN([C@@H]3COC4(C3)CN(c3ncco3)C4)CC2)c1` [Example 4D, (S)-7-(4-(5-fluoro-2-(((R)-tetrahydrofuran-3-yl)oxy)phenyl)piperidin-1-yl)-2-(oxazol-2-yl)-5-oxa-2-azaspiro[3.4]octane], the EC50 is greater than 25 µM and the Emax is 17%.
With `Fc1ccc([C@H]2CCOC2)c(C2CCN([C@@H]3COC4(C3)CN(c3nnco3)C4)CC2)c1` (single isomer, unassigned) [Example 3F, (S)-7-(4-(5-fluoro-2-((R)-tetrahydrofuran-3-yl)phenyl)piperidin-1-yl)-2-(1,3,4-oxadiazol-2-yl)-5-oxa-2-azaspiro[3.4]octane or (S)-7-(4-(5-fluoro-2-((S)-tetrahydrofuran-3-yl)phenyl)piperidin-1-yl)-2-(1,3,4-oxadiazol-2-yl)-5-oxa-2-azaspiro[3.4]octane], the EC50 turned out to be 0.406 µM and the “M2 FDSS PA %” value is 49%.
For `Fc1ccc(OC[C@@H]2COCCO2)c(C2CCN([C@@H]3COC4(C3)CN(c3nncs3)C4)CC2)c1` [Example 5L, (S)-7-(4-(2-(((S)-1,4-dioxan-2-yl)methoxy)-5-fluorophenyl)piperidin-1-yl)-2-(1,3,4-thiadiazol-2-yl)-5-oxa-2-azaspiro[3.4]octane], the EC50 is 0.456 µM and the Emax was 32%.
For `Fc1ccc(OC[C@H]2COCCO2)c(C2CCN([C@@H]3COC4(C3)CN(c3nncs3)C4)CC2)c1` [Example 5K, (S)-7-(4-(2-(((R)-1,4-dioxan-2-yl)methoxy)-5-fluorophenyl)piperidin-1-yl)-2-(1,3,4-thiadiazol-2-yl)-5-oxa-2-azaspiro[3.4]octane] the same measures were 0.453 µM and 32%.
On to `c1ccc(C2CCN([C@@H]3COC4(C3)CN(c3ncco3)C4)CC2)c(OC2CCOCC2)c1` [Example 4J, (S)-2-(oxazol-2-yl)-7-(4-(2-((tetrahydro-2H-pyran-4-yl)oxy)phenyl)piperidin-1-yl)-5-oxa-2-azaspiro[3.4]octane], for which the EC50 is greater than 25 µM and the Emax came to 0%.
